Assay results: US4308210A, “Nanaomycin B and therapeutic compositions containing same” (The Kitasato Institute, priority 1976, dated 1981)
Converted amounts (≈) assume the structure as drawn. “Also recorded” adds a separate entry of the source.

How the values were obtained:
[1] = test system: Staphylococcus aureus FDA 209P (JC-1); experiment: Antimicrobial spectrum, MIC, nutrient agar; assay type: cell-based; conditions: FDA209P, 48 h, nutrient agar (pH 7.0, 2 days, 37° C.)
[2] = test system: Escherichia coli NIHJ (JC-2); experiment: Antimicrobial spectrum, MIC, nutrient agar; assay type: cell-based; conditions: 48 h, nutrient agar (pH 7.0, 2 days, 37° C.)
[3] = test system: Pseudomonas aeruginosa; experiment: Antimicrobial spectrum, MIC, nutrient agar; assay type: cell-based; conditions: 48 h, nutrient agar (pH 7.0, 2 days, 37° C.)
[4] = test system: Aspergillus fumigatus IAM 2612; experiment: Antimicrobial spectrum, MIC, potato agar; assay type: cell-based; conditions: IAM2612, 96 h, potato agar (pH 6.4, 4 days, 27° C.)
[5] = test system: Piricularia oryzae; experiment: microbe, parasite or virus in culture; assay type: cell-based; conditions: 96 h, pH 6.4
[6] = test system: Trichophyton asteroides; experiment: Antimicrobial spectrum, MIC, potato agar; assay type: cell-based; conditions: 96 h, potato agar (pH 6.4, 4 days, 27° C.)
[7] = test system: Trichophyton pedis 804; experiment: Antimicrobial spectrum, MIC, potato agar; assay type: cell-based; conditions: Trichophyton pedis, 804, 96 h; potato agar (pH 6.4, 4 days, 27° C.)
[8] = test system: Trichophyton purpureum; experiment: Antimicrobial spectrum, MIC, potato agar; assay type: cell-based; conditions: 96 h, potato agar (pH 6.4, 4 days, 27° C.)
[9] = test system: Trichophyton rubrum; experiment: Antimicrobial spectrum, MIC, potato agar; assay type: cell-based; conditions: 96 h, potato agar (pH 6.4, 4 days, 27° C.)
[10] = test system: Mycoplasma gallinarum; experiment: Antimicrobial spectrum, MIC, PPLO agar; assay type: cell-based; conditions: Mycoplasmopsis gallinarum, 192 h, Hokken PPLO agar (pH 7.8, 8 days, 37° C.)
Method: (§1) H Hokken PPLO agar (pH 7.8, 8 days, 37° C.)
(§2) MIC Minimal inhibitory concentration

[11] = test system: Mycoplasma iners; experiment: Antimicrobial spectrum, MIC, PPLO agar; assay type: cell-based; conditions: Mycoplasmopsis iners, 192 h; Hokken PPLO agar (pH 7.8, 8 days, 37° C.)
Method: as §1, §2

[12] = test system: Mycoplasma pneumonia; experiment: Antimicrobial spectrum, MIC, PPLO agar; assay type: cell-based; conditions: 192 h, Eiken PPLO agar (pH 7.8, 8 days, 37° C.)
Method: (§3) E Eiken PPLO agar (pH 7.8, 8 days, 37° C.)
as §2

[13] = test system: Mycoplasma gallisepticum; experiment: Growth inhibition of Mycoplasma gallisepticum (text summary of Table 1); assay type: cell-based; conditions: Mycoplasmoides gallisepticum, 192 h, read-out: growth inhibited at a concentration
Method: as §1, §3, §2

[14] = test system: Gram-positive bacteria such as, for example Staphylococcus aureus; experiment: Growth inhibition of Gram-positive bacteria (text summary of Table 1); assay type: cell-based
[15] = test system: various fungi of some species belonging to the genus Trichophyton; experiment: Growth inhibition of fungi of the genus Trichophyton (text summary of Table 1); assay type: cell-based
[16] = test system: mycoplasma; experiment: Activity against mycoplasma; assay type: cell-based; conditions: in words
Method: as §1, §3, §2

[17] = test system: Aspergillus fumigatus; experiment: Antifungal activity, agar dilution method; assay type: cell-based; conditions: Aspergillus fumigatus, 96 h, potato agar, pH 6.4, 27° C., 4 days, read-out: Minimal Inhibitory Con.
Method: (§4) Minimal inhibitory concentration is assayed by agar dilution method
(§5) (potato agar, pH 6.4, 27° C., 4 days)

[18] = test system: Aspergillus niger; experiment: Antifungal activity, agar dilution method; assay type: cell-based; conditions: Aspergillus niger, 96 h, potato agar, pH 6.4, 27° C., 4 days, read-out: Minimal Inhibitory Con.
Method: as §4, §5

[19] = test system: Candida albicans; experiment: Antifungal activity, agar dilution method; assay type: cell-based; conditions: Candida albicans, 96 h, potato agar, pH 6.4, 27° C., 4 days, read-out: Minimal Inhibitory Con.
Method: as §4, §5

[20] = test system: Microsporum gypseum; experiment: Antifungal activity, agar dilution method; assay type: cell-based; conditions: Nannizzia gypsea, 96 h, potato agar, pH 6.4, 27° C., 4 days, read-out: Minimal Inhibitory Con.
Method: as §4, §5

[21] = test system: Saccharomyces sake; experiment: Antifungal activity, agar dilution method; assay type: cell-based; conditions: Saccharomyces, 96 h, potato agar, pH 6.4, 27° C., 4 days, read-out: Minimal Inhibitory Con.
Method: as §4, §5

[22] = test system: Trichophyton asteroides; experiment: Antifungal activity, agar dilution method; assay type: cell-based; conditions: Trichophyton, 96 h, potato agar, pH 6.4, 27° C., 4 days, read-out: Minimal Inhibitory Con.
Method: as §4, §5

[23] = test system: Trichophyton ferrugineum; experiment: Antifungal activity, agar dilution method; assay type: cell-based; conditions: Microsporum ferrugineum, 96 h, potato agar, pH 6.4, 27° C., 4 days, read-out: Minimal Inhibitory Con.
Method: as §4, §5

[24] = test system: Trichophyton interdigitale; experiment: Antifungal activity, agar dilution method; assay type: cell-based; conditions: Trichophyton interdigitale, 96 h, potato agar, pH 6.4, 27° C., 4 days, read-out: Minimal Inhibitory Con.
Method: as §4, §5

[25] = test system: Trichophyton rubrum; experiment: Antifungal activity, agar dilution method; assay type: cell-based; conditions: Trichophyton rubrum, 96 h, potato agar, pH 6.4, 27° C., 4 days, read-out: Minimal Inhibitory Con.
Method: as §4, §5

[26] = test system: Trichophyton schoenleini; experiment: Antifungal activity, agar dilution method; assay type: cell-based; conditions: Trichophyton, 96 h, potato agar, pH 6.4, 27° C., 4 days, read-out: Minimal Inhibitory Con.
Method: as §4, §5

[27] = test system: Trichophyton violaceum; experiment: Antifungal activity, agar dilution method; assay type: cell-based; conditions: Trichophyton violaceum, 96 h, potato agar, pH 6.4, 27° C., 4 days, read-out: Minimal Inhibitory Con.
Method: as §4, §5

[28] = test system: mycoplasma; experiment: Antimycoplasma activity, paper disc method; assay type: cell-based
Method: Inhibitory zone is assayed by paper disc method (Eiken PPLO agar, pH 7.8,

[29] = Acute toxicity, LD50; conditions: in vivo, ip; intra-penetrial injection into mouse
Description: Accordingly, it can be said that nanaomycin B represents a new antibiotic which may be used as a medicament for human beings and animals.

[30] = Conversion of nanaomycin B into nanaomycin A depending on pH; assay type: physicochemical
Method: Nanaomycin B (200 mg) is dissolved in 60 ml of 0.1 N sodium hydroxide and the solution is allowed to stand for 10 minutes. After adjusting to pH 2.0 with 6 N hydrochloric acid, the product is extracted with ethyl acetate. The extract is evaporated and orange yellow needles are obtained from an ethanol solution of the product. The compound is identified as nanaomycin A by the melting point, IR spectrum and thin-layer chromatography.

[31] = Activity of nanaomycin B itself; conditions: in words

With `CC1OC(CC(=O)O)CC2C(=O)c3cccc(O)c3C(=O)C12O` (stereo not drawn) [Nanaomycin B] the MIC [1] was 2 µg/mL (≈ 6.24 µM), the MIC [2] was 500 µg/mL (≈ 1560 µM) and the MIC [3] was > 500 µg/mL. The MIC [4] was > 100 µg/mL, the MIC [5] was 15.6 µg/mL (≈ 48.7 µM) and the MIC [6] was 12.5 µg/mL (≈ 39 µM). The MIC [7] was 3.1 µg/mL (≈ 9.68 µM), the MIC [8] was 25 µg/mL (≈ 78.1 µM) and the MIC [9] was 3.1 µg/mL (≈ 9.68 µM). For the same molecule, the MIC [10] was 3.12 µg/mL (≈ 9.74 µM), the MIC [11] was 3.12 µg/mL (≈ 9.74 µM) and the MIC [12] was 0.05 µg/mL (≈ 0.156 µM). The MIC [13] was ≤ 0.1 µg/mL, the MIC ([14]; Staphylococcus aureus, summary of Table 1, read-out: growth inhibited at a concentration) was 2 to 8 µg/mL (≈ 6.24 to 25 µM) and the “activity on Gram-positive bacteria” value ([14]; in words) was “active”. The MIC ([15]; Trichophyton, 96 h, summary of Table 1, read-out: growth inhibited at a concentration) was ≤ 25 µg/mL, the activity on trycophyton ([15]; in words) was “active” and the activity against mycoplasma [16] was “high activity; also recorded: especially strong activity”. For the same molecule, the MIC [17] was 50 µg/mL (≈ 156 µM), the MIC [18] was > 100 µg/mL and the MIC [19] was > 100 µg/mL. For the same molecule, the MIC [20] was 12.5 µg/mL (≈ 39 µM), the MIC [21] was > 100 µg/mL and the MIC [22] was 12.5 µg/mL (≈ 39 µM). It also gave an MIC [23] of 6.3 µg/mL (≈ 19.7 µM), an MIC [24] of 12.5 µg/mL (≈ 39 µM) and an MIC [25] of 6.3 µg/mL (≈ 19.7 µM). It also gave an MIC [26] of 0.4 µg/mL (≈ 1.25 µM), an MIC [27] of 6.3 µg/mL (≈ 19.7 µM) and a zone of inhibition at 10 µg/mL ([28]; Mycoplasma, 24 h, 10 μg/ml, Eiken PPLO agar, pH 7.8, 37° C., 1 day, read-out: Inhibitory Zone) of 22.7 mm. For the same molecule, the zone of inhibition at 100 µg/mL ([28]; Mycoplasma, 24 h, 100 μg/ml, Eiken PPLO agar, pH 7.8, 37° C., 1 day, read-out: Inhibitory Zone) was 32.6 mm, the “antimycoplasma activity compared with ethylkalafunginate and deoxyfrenolicin” value ([28]; in words) was “superior” and the LD50 [29] was 169 mg/kg. For the same molecule, the “conversion into nanaomycin A in an acidic or neutral condition” value ([30]; acidic or neutral condition) was “gradually converted”, the “conversion into nanaomycin A in an alkaline condition” value ([30]; alkaline condition) was “easily converted into nanaomycin A” and the “activity of nanaomycin B itself” value [31] was “no or little activity”.
